# From ChEMBL document CHEMBL1781945, “A new series of 3-phenylcoumarins as potent and selective MAO-B inhibitors” (Bioorg Med Chem Lett, 2009)
# Legend:
# [1] = biological target: T1, Amine oxidase [flavin-containing] A (Homo sapiens, UniProt P21397); experiment: Inhibition of human recombinant MAOA expressed in BTI insect cells at 100 uM using p-tyramine substrate by fluorometric method
# T1 sequence (P21397 whole entry): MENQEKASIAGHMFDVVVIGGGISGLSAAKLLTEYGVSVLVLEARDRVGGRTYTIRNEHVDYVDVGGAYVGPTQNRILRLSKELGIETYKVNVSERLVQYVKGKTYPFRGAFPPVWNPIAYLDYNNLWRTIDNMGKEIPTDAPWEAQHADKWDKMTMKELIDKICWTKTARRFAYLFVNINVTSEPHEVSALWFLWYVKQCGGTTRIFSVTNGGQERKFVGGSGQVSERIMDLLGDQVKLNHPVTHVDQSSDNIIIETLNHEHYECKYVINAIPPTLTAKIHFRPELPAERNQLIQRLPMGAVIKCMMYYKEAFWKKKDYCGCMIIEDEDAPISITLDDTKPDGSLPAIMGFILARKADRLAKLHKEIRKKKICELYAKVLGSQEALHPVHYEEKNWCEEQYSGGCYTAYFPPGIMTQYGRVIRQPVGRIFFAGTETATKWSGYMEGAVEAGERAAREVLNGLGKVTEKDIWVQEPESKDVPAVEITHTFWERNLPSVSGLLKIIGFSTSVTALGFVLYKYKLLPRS
# [2] = biological target: T2, Amine oxidase [flavin-containing] B (Homo sapiens, UniProt P27338); experiment: Inhibition of human recombinant MAOB expressed in BTI insect cells using p-tyramine substrate by fluorometric method
# T2 sequence (P27338 whole entry): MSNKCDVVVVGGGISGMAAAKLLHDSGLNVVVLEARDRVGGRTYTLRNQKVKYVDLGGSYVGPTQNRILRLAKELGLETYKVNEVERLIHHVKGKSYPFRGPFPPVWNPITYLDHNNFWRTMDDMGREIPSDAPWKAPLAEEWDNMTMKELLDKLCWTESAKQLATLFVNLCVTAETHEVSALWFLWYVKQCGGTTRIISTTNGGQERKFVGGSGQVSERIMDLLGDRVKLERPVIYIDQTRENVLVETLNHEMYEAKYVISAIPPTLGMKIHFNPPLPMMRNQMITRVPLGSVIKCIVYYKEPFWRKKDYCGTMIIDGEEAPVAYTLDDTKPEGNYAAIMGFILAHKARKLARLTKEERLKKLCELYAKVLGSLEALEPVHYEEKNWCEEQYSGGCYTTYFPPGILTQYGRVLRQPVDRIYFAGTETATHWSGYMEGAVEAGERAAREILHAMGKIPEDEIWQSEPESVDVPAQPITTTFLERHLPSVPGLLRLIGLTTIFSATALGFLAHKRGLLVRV
# Homo sapiens = species: Homo sapiens; experiment: Selectivity index, ratio of IC50 for human recombinant MAOA to IC50 for human recombinant MAOB
Structure (SMILES),inhibition (INH) [1],IC50 [2] [nM],Ratio IC50 (Homo sapiens)
Cc1ccc2oc(=O)c(-c3ccccc3)cc2c1,Not Active,284,> 352
COc1cc(-c2cc3cc(C)ccc3oc2=O)cc(OC)c1OC,Not Active,161,> 623
COc1cc(OC)cc(-c2cc3cc(C)ccc3oc2=O)c1,Not Active,8.98,> 11100
COc1ccc(-c2cc3cc(C)ccc3oc2=O)cc1,Not Active,13.1,> 7660
